Our source for the IC50 values is US9458508B2, “Methods and compositions for the diagnosis and treatment of cancer resistant to anaplastic lymphoma kinase (ALK) kinase inhibitors” (St. Jude Children's Research Hospital, priority 2010, dated 2016).

In the experiment the test system is parental BaF3 cells. Nature of the experiment: cells. The conditions noted are these: Mus musculus, BaF3, 72 h.

Experimental: Parental BaF3 cells (“BaF3”) were also tested as a normal, non-ALK-dependent cell control.

As for `C[C@@H](Oc1cc(-c2cnn(C3CCNCC3)c2)cnc1N)c1c(Cl)ccc(F)c1Cl` [PF-02341066], the IC50 (in general, the concentration that gives 50% inhibition) stood at 1460 nM.
